Reference: patent publication US9815842B2, “Pyrazolo pyrimidine derivatives and their use as MALT1 inhibitors” (Novartis AG, priority 2014, dated 2017)

Key:
[1] = target: C-domain of MALT1 (amino acids 329-824) (Homo sapiens (Human), UniProt Q9UDY8); assay: MALT1 biochemical assay (fluorescence lifetime enzyme activity assay); conditions: 60 min pre-incubation, 2.5 nM enzyme, 1 μM peptide substrate
Human IL2 promoter = Human IL2 promoter reporter gene assay (RGA) in Jurkat cells; assay type: cell-based; conditions: Jurkat clone K22 290_H23, anti-CD28 mAb + PMA stimulation 5.5 h
Summary of the method: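 Transfected Jurkat clone K22 290_H23 cells were pre-incubated with compounds 30 min at 37 °C, then stimulated 5.5 h with anti-CD28 mAb (15E8, 3 μg/ml) plus PMA (1 μg/ml). IL2-promoter reporter activity was read as BriteLitePlus bioluminescence.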

[2] = target: cIAP2-MALT1 fusion protein (Homo sapiens, UniProt Q9UDY8); assay: cell-based
cIAP2-MALT1 fusion protein, sequence (Q9UDY8 2-824 limits assumed): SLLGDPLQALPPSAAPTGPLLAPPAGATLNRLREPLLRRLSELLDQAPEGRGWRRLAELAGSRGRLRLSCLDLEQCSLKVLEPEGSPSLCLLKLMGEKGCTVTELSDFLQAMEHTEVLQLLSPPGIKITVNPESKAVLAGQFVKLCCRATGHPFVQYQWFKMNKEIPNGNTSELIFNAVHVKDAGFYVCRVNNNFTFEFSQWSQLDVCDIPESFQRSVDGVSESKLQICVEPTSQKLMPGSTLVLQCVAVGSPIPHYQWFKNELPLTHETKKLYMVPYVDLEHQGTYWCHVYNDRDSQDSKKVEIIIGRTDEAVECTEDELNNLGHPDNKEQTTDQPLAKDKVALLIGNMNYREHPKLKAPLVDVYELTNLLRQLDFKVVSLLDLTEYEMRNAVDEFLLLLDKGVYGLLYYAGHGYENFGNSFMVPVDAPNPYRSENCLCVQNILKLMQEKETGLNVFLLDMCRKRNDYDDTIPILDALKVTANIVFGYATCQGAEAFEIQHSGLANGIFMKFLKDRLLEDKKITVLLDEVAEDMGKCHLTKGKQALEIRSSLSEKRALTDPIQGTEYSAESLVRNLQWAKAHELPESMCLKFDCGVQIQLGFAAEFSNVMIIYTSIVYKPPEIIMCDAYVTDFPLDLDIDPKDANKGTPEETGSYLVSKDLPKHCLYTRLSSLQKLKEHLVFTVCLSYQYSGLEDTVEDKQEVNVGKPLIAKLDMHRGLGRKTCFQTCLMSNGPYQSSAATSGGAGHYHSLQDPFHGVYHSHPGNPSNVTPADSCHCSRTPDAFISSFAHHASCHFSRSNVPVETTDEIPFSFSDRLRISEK
Protocol: For the measurement of compound inhibition, 0.25 μl of test compound were mixed with 12.5 μl of enzyme in wells of the 384-well plates, and incubated for 60 minutes at room temperature (22° C.). After that, 12.5 μl of substrate was added, and the enzymatic reaction was allowed to proceed for 60 minutes at room temperature (22° C.). […] The DMSO content was between 0.9 and 1% (v/v). […] The IC50 value was calculated from the plot of percentage inhibition versus inhibitor concentration using non-linear regression analysis software (Origin, OriginLab Corporation, USA). The data were fitted using a 4 Parameter Logistic Model, characterized by the following equation: y=A2+(A1−A2)/(1+(x/IC50)^p) where y is the %-inhibition at the inhibitor concentration, x. A1 is the lowest inhibition value, and A2 the maximum inhibition value.

C-domain of MALT1 (amino acids 329-824), sequence (Q9UDY8 329-824): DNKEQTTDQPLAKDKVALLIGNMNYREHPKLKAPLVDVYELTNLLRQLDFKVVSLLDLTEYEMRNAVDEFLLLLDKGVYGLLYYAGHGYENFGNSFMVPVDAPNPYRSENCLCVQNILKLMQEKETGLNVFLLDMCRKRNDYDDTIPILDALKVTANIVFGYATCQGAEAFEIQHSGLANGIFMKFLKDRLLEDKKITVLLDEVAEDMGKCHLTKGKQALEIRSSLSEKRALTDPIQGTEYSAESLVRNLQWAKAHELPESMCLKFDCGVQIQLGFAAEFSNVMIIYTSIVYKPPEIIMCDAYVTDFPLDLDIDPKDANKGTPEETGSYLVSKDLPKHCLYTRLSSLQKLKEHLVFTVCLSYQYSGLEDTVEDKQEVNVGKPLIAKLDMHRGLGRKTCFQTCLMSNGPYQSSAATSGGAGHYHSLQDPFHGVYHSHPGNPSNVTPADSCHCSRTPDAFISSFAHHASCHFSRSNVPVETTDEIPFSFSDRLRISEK

| Structure (SMILES) | IC50 [1] | IC50 (Human IL2 promoter) | IC50 [2] |
| --- | --- | --- | --- |
| COCC1(c2c(NC(=O)Nc3ccnc(C(F)(F)F)c3)cnc3cc(C)nn23)CC1 [Example 79, 1-(7-(1-(methoxymethyl)cyclopropyl)-2-methylpyrazolo[1,5-a]pyrimidin-6-yl)-3-(2-(trifluoromethyl)pyridin-4-yl)urea] | 45 nM | 206 nM | 408 nM |
| CC(C)c1c(NC(=O)Nc2cnc(N3CCCS3(=O)=O)c(C(F)(F)F)c2)cnc2cc(Cl)nn12 [Example 27, 1-(2-chloro-7-isopropylpyrazolo[1,5-a]pyrimidin-6-yl)-3-(6-(1,1-dioxidoisothiazolidin-2-yl)-5-(trifluoromethyl)pyridin-3-yl)urea] | 6 nM | 248 nM | 54 nM |
| CC(C)c1c(NC(=O)Nc2cc(Cl)c(=O)n(C)c2-n2cccn2)cnc2cc(Cl)nn12 [Example 24, 1-(5-chloro-1-methyl-6-oxo-2-(1H-pyrazol-1-yl)-1,6-dihydropyridin-3-yl)-3-(2-chloro-7-isopropylpyrazolo[1,5-a]pyrimidin-6-yl)urea] | 5 nM | 214 nM | 131 nM |
| CC(C)c1c(NC(=O)Nc2cc(C(F)(F)F)cn(C)c2=O)cnc2cc(Cl)nn12 [Example 32, 1-(2-chloro-7-isopropylpyrazolo[1,5-a]pyrimidin-6-yl)-3-(1-methyl-2-oxo-5-(trifluoromethyl)-1,2-dihydropyridin-3-yl)urea] | 19 nM | 221 nM | 214 nM |
| COCC(OC)c1c(NC(=O)Nc2cnc(-n3nccn3)c(Cl)c2)cnc2cc(Cl)nn12 (stereo not drawn) [Example 56, 1-(5-chloro-6-(2H-1,2,3-triazol-2-yl)pyridin-3-yl)-3-(2-chloro-7-(1,2-dimethoxyethyl)pyrazolo[1,5-a]pyrimidin-6-yl)urea] | 5 nM | 95 nM | 131 nM |

More lines, now with the values ahead:

| IC50 [1] | IC50 (Human IL2 promoter) | IC50 [2] | Structure (SMILES) |
| --- | --- | --- | --- |
| 3 nM | 149 nM | 91 nM | Cc1ncn(-c2ccc(NC(=O)Nc3cnc4cc(Cl)nn4c3C(C)C)cc2C#N)n1 [Example 19, 1-(2-chloro-7-isopropylpyrazolo[1,5-a]pyrimidin-6-yl)-3-(3-cyano-4-(3-methyl-1H-1,2,4-triazol-1-yl)phenyl)urea] |
| 5 nM | 145 nM | 176 nM | O=C(Nc1cnc(-n2nccn2)c(Cl)c1)Nc1cnc2cc(Cl)nn2c1C1CCC1 [Example 38, 1-(5-chloro-6-(2H-1,2,3-triazol-2-yl)pyridin-3-yl)-3-(2-chloro-7-cyclobutylpyrazolo[1,5-a]pyrimidin-6-yl)urea] |
| 4 nM | 100 nM | 74 nM | Cc1cnn(-c2ncc(NC(=O)Nc3cnc4cc(Cl)nn4c3C(C)C)cc2Cl)n1 [Example 22, 1-(5-chloro-6-(4-methyl-2H-1,2,3-triazol-2-yl)pyridin-3-yl)-3-(2-chloro-7-isopropylpyrazolo[1,5-a]pyrimidin-6-yl)urea] |
| 3 nM | 507 nM | 382 nM | CC(C)c1c(NC(=O)Nc2cc(Cl)c(-n3nccn3)c(Cl)c2)cnc2cc(Cl)nn12 [Example 30, 1-(2-chloro-7-isopropylpyrazolo[1,5-a]pyrimidin-6-yl)-3-(3,5-dichloro-4-(2H-1,2,3-triazol-2-yl)phenyl)urea] |
| 2 nM | 39 nM | 77 nM | COC(=O)c1cc(Cl)cc(NC(=O)Nc2cnc3cc(Cl)nn3c2[C@H](C)OC)c1 [Example 13, (S)-methyl 3-chloro-5-(3-(2-chloro-7-(1-methoxyethyl)pyrazolo[1,5-a]pyrimidin-6-yl)ureido)benzoate] |
| 3 nM | 140 nM | 179 nM | Cc1cc2ncc(NC(=O)Nc3cnc(-n4nccn4)c(Cl)c3)c(C3(C)CC3)n2n1 [Example 72, 1-(5-chloro-6-(2H-1,2,3-triazol-2-yl)pyridin-3-yl)-3-(2-methyl-7-(1-methylcyclopropyl)pyrazolo[1,5-a]pyrimidin-6-yl)urea] |
